Experimental data from patent US20250127896A1, “CHIMERIC TIM4 RECEPTORS AND USES THEREOF” (CERO THERAPEUTICS HOLDINGS, INC., priority 2021, published 2025).

What was measured:
[1] = test system: A2780 cells; settings: compared to untreated
Protocol: FIG. 34B: At 120 hours, the ratio of cells remaining in treated samples compared to untreated A2780 samples was quantified using the incucyte data from FIG. 34A. FIG. 34C: Proliferation of CER T cells in co-culture assays.
(§1) At day 0, media was exchanged and donor T cells from three subjects (FIG. 28) transduced with CER-1234, CER-1236, or control CER-1183 (FIG. 27A) were added at various effector:target ratios to A2780 cells treated with PARPi to assess chimeric Tim4 receptor-T cell activation, cytokine production, proliferation, and cytotoxic responses. Chimeric Tim4 receptor-T cells immunophenotyping and bulk supernatant analysis was performed on day 2 and day 5 following initiation of co-culture.
CER T-cell cytotoxic function was evaluated using the Incucyte® live-cell analysis system in co-culture assays with A2780 cells. A2780 cells engineered to constitutively express mCherry were pretreated with 1.5 μM olaparib, 0.5 μM niraparib or no drug for 96 hours. CER T cells (expanded for 6 days after transduction) in T-cell optimizer media containing IL-2, IL-7, and IL-15 were co-cultured with A2780 cells at an effector:target (E:T) ratio of 1:2 in the presence of the same concentrations of olaparib or niraparib.

[2] = test system: A2780 ovarian cancer cells; test: Viability and phosphatidylserine exposure of A2780 cells treated with PARP inhibitors (annexin V); format: cell-based, human; settings: for effective concentration that killed 25% cells (EC25): A2780 cells; for phosphatidylserine exposure on viable A2780 cells: subtherapeutic doses, 96 hours
Protocol: Viability (FIG. 31A) and phosphatidylserine (PS) exposure (FIG. 31B) of A2780 cells treated with niraparib or olaparib (both at 0.25 to 6 μM) at 96 hours.
as §1
Phosphatidylserine exposure on A2780 ovarian cancer cells upon treatment with the small molecule PARP inhibitors niraparib or olaparib was evaluated by annexin v staining to determine the appropriate drug dose. Phosphatidylserine targeting Tim-4 CER constructs designed to enhance cytotoxicity and target-dependent tumor cell fragment uptake were engineered. […] CER-1250 has the same intracellular signaling domains as CER1236 but has a mutated IgV domain with AAAA substitution to abrogate phosphatidylserine binding. Niraparib (0.5 μM) and olaparib (1.5 μM) were used to expose phosphatidylserine on the surface of A2780 cells for CER T cell recognition and cytotoxicity, T-cell activation, and cytokine responses were evaluated. Uptake of antigen by CER-1236 T cells was modeled with human papilloma virus E7 antigen-expressing squamous carcinoma (SCC152) TMEM30A phospholipid flippase knockout cells. […] E7 antigen presentation by CER-1236 T cells was assayed by surface expression of HLA-DR, a marker of T cell activation, on autologous HLA-A2-restricted E7 TCR T cells.
The induction of surface phosphatidylserine expression on A2780 ovarian cells treated with the PARP inhibitors olaparib and niraparib was measured by flow cytometry (FC) using annexin V.

[3] = test system: Jeko1 TMEM30A−/− cells; test: Uptake/engulfment of pHrodo-labeled JeKo-1 PS+ (TMEM30A−/−) cells by CER T cells; format: cell-based; settings: pHrodo label, in vitro co-culture
Protocol: FIG. 20: FACs and imaging-based detection of pHrodo dye-labeled tumor cell phagocytosis and endocytosis.
Statistical analysis was performed using 2-way ANOVA.

[4] = test system: REC-1 cells; test: Phagocytosis of pHrodo-labeled ibrutinib-treated REC-1 cells by CER T cells; format: cell-based; settings: REC-1 pretreated 10 μM ibrutinib, 16 and 40 hours of co-culture
Source text: FIG. 13A: Representative flow cytometry histograms showing engulfment of pHrodo red-labeled REC-1 target cells by CER1234, CER1161, and CER1183 T cells. FIG. 13B: Graphical summary of flow cytometry data showing engulfment of pHrodo red-labeled REC-1 target cells by CER1234, CER1161, and CER1183 T cells. * P<0.01, ** P<0.001, *** P<0.0001; mean+SD, n=4. FIG. 13C: Representative fluorescence microscopy images (at 40×) showing engulfment of pHrodo red-labeled REC-1 target cells by CER1234, CER1161, and CER1183 T cells. FIG. 13D: Engulfed pHrodo-green-labeled REC-1 tumor fragments co-localize into Lyso-tracker red-labeled lysosomes.
Phagocytosis was assessed in co-culture assays of REC-1 cells with CER T cells. […] The percentage of pHrodo red-positive cells was determined by flow cytometry after 16 or 40 hours of co-culture. The localization of tumor fragments in CER T-cell lysosomal compartments was assessed in a separate experiment with REC-1 cells labeled with pHrodo green; following co-culture, all cells were labeled with Lyso-tracker red. Visualization of engulfment was performed by fluorescence microscopy. 1-way ANOVA with Dunnett's post hoc test was performed compared with untransduced T cells.

[5] = test system: Kuramochi cells; test: Kuramochi co-culture with chimeric Tim4 receptor T cells and Niraparib (IncuCyte); format: cell-based; settings: Niraparib alone
Protocol: (§2) FIG. 7A: Flow cytometry measurement of surface PtdSer. Kuramochi cells were treated with 1.56 or 25 μM Niraparib or with equivalent volume of DMSO (control). 48 hours later samples were trypsinized and stained using a Tim4-Fc followed by a fluorescently-labeled secondary antibody to the Tim4-Fc. FIG. 7B: Kuramochi cells pre-treated for ˜20 hours with 1.56 μM Niraparib were co-cultured with pCTX133 and Untransduced CD4 T cells from donor 32 at a 2:1 T cell: Kuramochi ratio and a final Niraparib concentration of 1.56 μM. […] All data were collected via IncuCyte.
(§3) In ovarian tumors, poly (ADP-ribose) polymerase (PARP) inhibitors, such as Niraparib, are clinically approved drugs which target DNA damage response pathways. Responses are rarely complete, with relapse common after treatment. To induce Ptd-Ser exposure, BRCA-2 mutated Kuramochi cell line was treated with therapeutic doses of the PARP inhibitor Niraparib.

[6] = test system: Kuramochi cells; settings: 1.56 or 25 μM Niraparib, 48 hours
Protocol: as §2, §3

[7] = test system: REC-1 cells; test: T-cell activation markers PD-1 and 4-1BB in co-culture with REC-1 cells (flow cytometry); format: cell-based; settings: co-culture with REC-1 cells in the presence of 0.5 μM ibrutinib, 96 hours
Protocol: FIGS. 15A-15B: Induction of Cell-Surface Markers of T-Cell Activation in Ibrutinib-Treated Co-Cultures of CER1183 and CER1234 T cells and REC-1 Target Cells. Samples depicted in bar graphs from left to right, untransduced, CER-1183, and CER-1234. FIG. 15A: PD-1 expression in co-cultures. FIG. 15B: 4-1BB expression in co-cultures.
T-cell activation markers programmed death-1 (PD-1) and 4-1BB were evaluated on viable CD3+ T cells by flow cytometry using commercially available fluorochrome-conjugated antibodies. […] Assays were conducted 96 hours after initiation of co-culture of CER T cells with REC-1 cells.

[8] = test system: phosphatidylserine (PS); test: Single induction plate assay: IFN-γ by CER T cells on plate-bound phosphatidylserine (ELISA); format: cell-based; settings: plate-bound PS
Source text: (§4) FIGS. 19A-19C: CER T cells are activated and produce IFN-γ in response to phosphatidylserine engagement in a cell-free in vitro system. FIG. 19A: IFN-γ production in response phosphatidylserine (PS). IFN-γ production was induced in CER-1236 and CER-1234 T cells stimulated with PS (FIG. 19A), but not with phosphatidylethanolamine (PE) (FIG. 19B). […] FIG. 19C: CER1236 T cells are capable of recursive stimulation in vitro. Recursive IFN-γ induction with 3 serial stimulations at the indicated time points following a 24-hour rest after the first stimulation.
as §4, with “FIG. 33A-33C:” for “FIGS. 19A-19C:”, “33A:” for “19A:”, “33A),” for “19A),”, “33B).” for “19B).”, “33C:” for “19C:”
FIG. 44 are graphs showing IFNγ production in CER1234 T cells (left) or CER1236 T cells (right) from three donors in response to titrating doses of plate-bound phosphatidylserine.
FIG. 45 are graphs showing IFNγ production in CER1234 T cells or CER1236 T cells by donor in response to increasing doses of plate-bound phosphatidylserine.
FIG. 46 are graphs showing IFNγ production in CER1234 T cells or CER1236 T cells by donor in response to increasing doses of plate-bound phosphatidylserine at day 14 post-thaw.
FIG. 47 are graphs showing T cell expansion (left), IFNγ production (center), and cell viability (right) in CER1236 T cells in response to increasing doses of plate-bound phosphatidylserine.
FIG. 48 are graphs showing T cell expansion (left), IFNγ production (center), and cell viability (right) in CER1234 T cells in response to increasing doses of plate-bound phosphatidylserine.
(§5) CER T-cell activation was assessed by measuring induction of IFN-gamma by plate- and cell-based assays. Single induction plate assay: varying concentrations of phosphatidylserine (PS) or phosphatidylethanolamine (PE), a control membrane phospholipid not recognized by wild type TIM-4 (wtTIM-4), were coated onto high-binding tissue culture plates. CER T cells were added and IFN-γ levels were measured 24 hours after ligand exposure by ELISA. EC50 concentrations were determined by nonlinear regression (agonist vs. response-variable slope (4 parameters)). Induction by recursive stimulation plate assay: CER T cells were added to phosphatidylserine coated plates (2.5-20 μg/mL PS coating). Five days later, CER T cells were transferred to uncoated plates with fresh T cell optimizer media for 24 hours. Then, CER T cells were transferred again to a fresh PS coated plate. Supernatant was collected to assess IFN-γ induction by ELISA at various timepoints during re-stimulation (24, 72, and 120 hours). Cell-based assay: cytokine induction was assessed by multiparametric ELISA using conditioned supernatants harvested after 120 hours from the cytotoxicity assay described below.
T cells obtained from three different donors were transduced with CER1234 or CER1236 and incubated on titrating doses of plate-bound phosphatidylserine.
24 hour IFNγ stimulation by plate-bound phosphatidylserine aligns with day 5 post-activation expansion for CER1236 T cells. […] 24 hour IFNγ stimulation by plate-bound phosphatidylserine aligns with day 5 post-activation expansion for CER1234 T cells.

[9] = test system: REC-1 cells; test: Cytokine induction in CER T / REC-1 co-cultures (multiparametric ELISA); format: cell-based; settings: co-culture with REC-1 cells, 0.5 μM ibrutinib, 96 hours
Protocol: FIGS. 16A-16H: Induction of Cytokines in Ibrutinib-Treated Co-Cultures of CER1183 and CER1234 T cells and REC-1 Target Cells. Samples depicted in bar graphs from left to right, untransduced, CER-1183, and CER-1234. FIG. 16A: TNFα induction. FIG. 16B: IL-2 induction. FIG. 16C: IFNγ. FIG. 16D: IL-5 induction. FIG. 16E: IL-6 induction. FIG. 16F: IL-10 induction. FIG. 16G: IL-4 induction. FIG. 16H: granzyme B induction.
Cytokine induction was assessed by multiparametric ELISA using conditioned supernatants harvested after 96 hours in the cytotoxicity assay described above.
as §5

[10] = test system: REC-1 cells; test: CER T cell cytotoxicity against REC-1 mCherry cells with ibrutinib (Incucyte); format: cell-based; settings: REC-1 cells
Source text: FIG. 38: CER1236 T cells have enhanced and more complete cytotoxic effect against Ibrutinib-treated REC-1 MCL cells but not untreated REC-1 MCL cells.
Ibrutinib was washed off prior to co-culture with CER T cells. […] Total fluorescence of REC-1 mCherry cells decreased as cytotoxicity occurred.

| Molecule | A2780 cells eliminated, single agent [1] [%] | effective concentration that killed 25% cells (EC25) [2] [µM] | phosphatidylserine exposure on viable A2780 cells [2] | uptake/engulfment of JeKo-1 PS+ (TMEM30A−/−) tumor cell fragments [3] | further results |
| --- | --- | --- | --- | --- | --- |
| O=C(c1cc(Cc2n[nH]c(=O)c3ccccc23)ccc1F)N1CCN(C(=O)C2CC2)CC1 [olaparib] | 34 | 1.5 | induce phosphatidylserine exposure on viable A2780 cells | – | – |
| CO/C1=C\C(C)=C\[C@@H](C)[C@@H](O)[C@@H](C)C/C(C)=C/C=C/[C@H](OC)[C@@H]([C@@H](C)[C@@H](O)[C@H](C)[C@@]2(O)C[C@@H](O)[C@H](C)[C@@H](C(C)C)O2)OC1=O [Bafilomycin A, reference compound] | – | – | – | blocked tumor cell fragment uptake | – |
| CER1161: Tim4 binding domain-CD28tm-CD28icd-CD3zICD, SEQ ID NO:21 | – | – | – | – | engulfment of pHrodo red+ target cells [4]: increased engulfment of pHrodo red+target cells relative to untransduced T cells |
| NC(=O)c1cccc2cn(-c3ccc([C@@H]4CCCNC4)cc3)nc12 [Niraparib] | 23 | 0.5 | induce phosphatidylserine exposure on viable A2780 cells | – | growth of Kuramochi cells [5]: effective in inhibiting growth of Kuramochi cells; surface PtdSer (membrane phospholipid symmetry) [6]: elicits changes in membrane phospholipid symmetry, in a dose dependent manner |
| C=C1[C@@H](C)[C@H]2[C@H](Cc3ccccc3)NC(=O)[C@]23[C@H](OC(C)=O)/C=C/[C@@](C)(O)C(=O)[C@@H](C)C/C=C/[C@H]3[C@@H]1O [Cytochalasin D, reference compound] | – | – | – | blocked tumor cell fragment uptake | – |
| CER 1183: wildtype human Tim4, SEQ ID NO:20; control molecule lacking intracellular T-cell signaling domains (protein) MSKEPLILWLMIEFWWLYLTPVTSETVVTEVLGHRVTLPCLYSSWSHNSNSMCWGKDQCPYSGCKEALIRTDGMRVTSRKSAKYRLQGTIPRGDVSLTILNPSESDSGVYCCRIEVPGWFNDVKINVRLNLQRASTTTHRTATTTTRRTTTTSPTTTRQMTTTPAALPTTVVTTPDLTTGTPLQMTTIAVFTTANTCLSLTPSTLPEEATGLLTPEPSKEGPILTAESETVLPSDSWSSVESTSADTVLLTSKESKVWDLPSTSHVSMWKTSDSVSSPQPGASDTAVPEQNKTTKTGQMDGIPMSMKNEMPISQLLMIIAPSLGFVLFALFVAFLRGKLMETYCSQKHTRLDYIGDSKNVLNDVQHGREDEDGLFTL | – | – | – | – | PD-1 and 4-1BB expression on the T-cell surface [7]: not increased; IFN-γ production in response to phosphatidylserine [8]: did not induce IFN-γ; cytokine induction: TNF-α, IFN-γ, IL-10, IL-5, granzyme B [9]: not induced; tumor cell killing in combination with ibrutinib [10]: no additive effect with ibrutinib |
